Test results as given in ChEMBL document CHEMBL3507680, “University of Dundee, Gates Library screen for HepG2 cell viability”.

Experiment: Human HepG2 cell viability assay in 384 well format
Format: toxicity, cell-based
Design: dose 125 nL, time 70.5 hour; concentration not given beside the values
Settings: HepG2 cells, read-out: Inhibition

Structure (SMILES) | cytotoxicity at 70.5 h
CC(C)c1nc(CN(C)Cc2ccc(O)c(C(=O)O)c2)cs1 | -4.7%
C1CC(c2noc(C3CC3)n2)N(Cc2nc(C3CC3)no2)C1 (stereo not drawn) | -10.7%
Cc1cncc(C2CCCN2CCO)n1 (stereo not drawn) | -9.94%
Cc1ccccc1C(O)CNC(=O)Cc1ccc(F)cc1 (stereo not drawn) | -2.44%
Cc1ccc(-c2noc(C3CCN3C(=O)c3cc[nH]n3)n2)s1 (stereo not drawn) | -14.3%
O=C(C1CCOC1)N1C[C@H]2CN(c3ccccc3)C(=O)[C@H]2C1 (stereo partly drawn) | -4.87%
Cc1nocc1C(=O)N1CCc2c(CN(C)C)nn(C)c2C1 | -13.6%
CCN1C[C@H]2N(c3ncccn3)CCC[C@@]2(C(=O)NCC2CC2)C1 | 0.391%
O=C(NC1CCC1)[C@H]1C[C@@H]2CN(S(=O)(=O)c3ccccc3)C[C@H]1O2 | -1.64%
COCCO[C@H]1COCCN(Cc2ccc(OC)cc2)C1 | 8.32%
Cc1cccc(-c2ccc(C(=O)NCC3CCCOC3)c(=O)[nH]2)c1 (stereo not drawn) | -9.36%
O=C(CN1CCS(=O)(=O)CC1)NCc1ccccc1F | -8.79%
CC(C)[C@H]1CN(S(=O)(=O)c2cccnc2)C[C@@H]1N | 0.829%
Cc1c(C(=O)NCC2CCN(Cc3c[nH]cn3)C2)[nH]c2ccccc12 (stereo not drawn) | 8.7%
CC(C)COCCCNC(=O)NCC(O)c1cccc(F)c1 (stereo not drawn) | -0.106%
Cn1cc(C(=O)N2CCC(c3nccn3Cc3ccncc3)CC2)cn1 | -7.19%
CNC(=O)c1nnn(-c2ccccc2F)c1-c1ccccn1 | 0.41%
Cc1ncc(CNC(C)(C)CO)c2cc(C(=O)c3ccc(Br)cc3)oc12 | -14.3%
N#Cc1cccnc1OC1CCN(C(=O)c2cc(C3CC3)on2)CC1 | -6.54%
COc1ccc(C[C@H]2CN(c3nnc(C)s3)CC[C@@H]2OC)cc1 | -0.42%
Cc1cc(C)c(-c2nc(-c3c(C)ncc4c3CCNC4)no2)o1 | -11.5%
O=C(c1ccc(-c2cccc3c2CCNC3)o1)N1CCCCC1 | -3.94%
CN(C)C(=O)[C@H]1C[C@H]2OCC[C@H]2N(Cc2ccccn2)C1 | -2.93%

Structure (SMILES) | cytotoxicity at 70.5 h
Cc1cc(CNc2ccc(-c3nc(C4CC4)no3)cn2)no1 | -4.31%
CCc1ccsc1C(=O)NC(C#N)CC(C)C (stereo not drawn) | -2.59%
CCN1CCN(C2CCN(Cc3cc(C)on3)CC2)C1=O | 49.1%
O=C1CCC(=O)N1c1nn(Cc2ccccc2)cc1Cl | 20.6%
CS(=O)(=O)CCNC(=O)N1CC2(CCCC2)c2ccccc21 | 0.304%
CCNC(=O)c1nnn(Cc2ccccc2)c1OC | -7.02%
O=C(c1ccc2c(c1)OCO2)N1CCC[C@]2(C[C@H](OCC3CC3)CO2)C1 | -9.71%
CC(=O)N1CCCN(C(=O)c2ccc(Sc3ccccn3)cc2)CC1 | -8.48%
Cc1c[nH]c(CN(C)C(=O)C(C)(C)NC(=O)c2cccs2)n1 | -19.9%
O=c1[nH]c(-c2ccc(F)cc2)nc2c1CCNC2 | -0.466%
CNC(=O)C1=NOC2(CCN(Cc3nccs3)C2)C1 (stereo not drawn) | -3.01%
CC(C1CCN(C(=O)c2coc(CN3CCOCC3)c2)CC1)N(C)C (stereo not drawn) | -1.57%
CS(=O)(=O)N1CCC[C@H]1c1ncnn1-c1ccc2c(c1)OCO2 | -1.95%
Cn1ncc2c(NC3CCSC3)nc(-c3ccncc3)nc21 (stereo not drawn) | 3.97%
O=C(c1cscn1)N1CCC2(CC1)CN(c1ccccn1)CCO2 | -9.14%
O=C(NCc1csc(-c2cnccn2)n1)c1cnn2c1CCCC2 | -5.37%
CC1CCCCN1C(=O)c1ccn(COc2ccc(F)cc2)n1 (stereo not drawn) | -9.66%
CC(=O)c1cccc(NC(=O)CCn2nc(-c3cccs3)oc2=O)c1 | -18.2%
CC(C)CN1C(=O)CC[C@H]2CN(Cc3ncc[nH]3)CC[C@H]21 | -3.44%
Cc1nc(CC2CCN(Cc3ccc(CCC(C)(C)O)cc3)CC2)no1 | 13.1%
Cc1nc(C)n(C2CCCN(C(=O)c3cn4cccnc4n3)C2)n1 (stereo not drawn) | 2.73%
O=C(NC[C@]12COC[C@H]1CN(Cc1ccco1)C2)c1ccccc1 | -14.6%
CC(O)CN1CC2(CCC1=O)CCN(Cc1cc(F)ccc1Cl)CC2 (stereo not drawn) | -2.56%

Structure (SMILES) | cytotoxicity at 70.5 h
Cn1cccc1CN1CCc2ncnc(-c3cccnc3)c2CC1 | -4.34%
CC(C)c1nc2n(n1)CC(Nc1ncnc3ccccc13)CC2 (stereo not drawn) | -13%
Cc1cc(C)n(C2CCCN(C(=O)c3c(C)noc3C)C2)n1 (stereo not drawn) | -7.4%
Fc1ccc2c(c1)C(NCc1nnc3n1CCCCC3)CCCO2 (stereo not drawn) | 3.88%
Cc1ccc(NC(=O)C2=CN=S=N2)cc1 | 18.8%
Cc1cc(C)n(CC2CCCCN2CCC(=O)Nc2cc(C)on2)n1 (stereo not drawn) | -10.3%
CC(C)CNC(=O)[C@H]1C[C@@H]2CN(C(=O)NCC3CCCCC3)C[C@H]1O2 | -2.13%
CC(C)c1nc(CN2CCCCC2Cn2cncn2)cs1 (stereo not drawn) | 16.2%
COc1cc(CCC(=O)NC(C)C)ccc1OCC(F)(F)F | -18.5%
CN(C)C(=O)c1cccnc1-c1ccc2c(c1)OCCO2 | -18.6%
CC(=O)NC1CCCN(C(=O)NCc2cccnc2N(C)C)C1 (stereo not drawn) | 4.39%
COCC1CCCCN1C(=O)c1cc(Cn2ccc3ccccc32)[nH]n1 (stereo not drawn) | -2.47%
CN(C)C(=O)c1ccc(CNC(=O)NCCN(C)C2CCCC2)cc1 | -13%
CC(C)c1nccn1CCCNC(=O)c1ccc(-c2ccncc2)nc1 | 17.9%
NC(=O)c1cnc2n1CCN(C(=O)c1ccc(Cn3cccc3)cc1)C2 | 5.38%
CS(=O)(=O)c1ccc(CNc2nccc(C(F)(F)F)n2)cc1 | -1.16%
Cc1nc(CN(C)C2CCN(CCn3cc(C#N)cn3)C2)no1 (stereo not drawn) | 8.59%
CCOc1ccc(NC(=O)NCc2cccnc2OCC)cc1 | -9.72%
COc1ccc2oc(C(C)NC(=O)NC3CCN(C)CC3)c(C)c2c1 (stereo not drawn) | -13.4%
CCN(CC1CCCO1)C(=O)Nc1cc(C)ccc1S(C)(=O)=O (stereo not drawn) | -1.66%
Cn1cc(N2CCC(Nc3ccc4nccnc4n3)C2=O)cn1 (stereo not drawn) | -10.5%
Fc1ccccc1-c1nc(CNCCn2cccn2)cs1 | -3.88%
Cc1ccc(S(=O)(=O)N2CCCCC(N3CCN(C)CC3)C2)cc1F (stereo not drawn) | -5.17%

Structure (SMILES) | cytotoxicity at 70.5 h
CCN1CCn2c(-c3cccc(F)c3)cnc2C12CCN(C(C)=O)CC2 | 2.55%
COCCC(C)NC(=O)N1CCC(n2ccc(C(F)(F)F)n2)CC1 (stereo not drawn) | -98.6%
COCC(=O)N1CCCN(Cc2cc(C(C)C)no2)CC1 | 12.3%
CCc1ccccc1OCC(=O)Nc1ccnc(OCCN(C)C)c1 | 3.03%
c1cnc(N2CCOCC3(CN(Cc4nccs4)CCO3)C2)nc1 (stereo not drawn) | -2.26%
Cc1cnn(CCNCc2nccn2CC(F)(F)F)c1 | 1.15%
CCCc1ccc(C(=O)N2CCc3c(nc(C)nc3N(C)C)C2)cc1 | -0.957%
Cc1ccc(C#N)cc1NC(=O)NC1CCCN(c2ncccn2)C1 (stereo not drawn) | -0.699%
O=C(N1CCCO1)[C@@]12CCO[C@@H]1CCN(Cc1ccccc1)C2 | -5%
O=C(CC1NC(N2CCc3ccccc32)=NC1=O)Nc1ccc(Cl)cc1 (stereo not drawn) | -11.1%
CCN(CC)C(=O)[C@@H]1C[C@@H](N)CN1c1nc(N2CCCC2)nc(C)c1C | 25.5%
Cc1cnn(CCNCC(=O)NCCOc2ccc(Cl)cc2)c1 | -13%
CSc1ccc(C(=O)N2CCCC(Nc3ccc(F)cc3)C2)cc1 (stereo not drawn) | -0.171%
COc1cccc(C2CCCN2Cc2nc3c(cnn3C)c(=O)[nH]2)c1 (stereo not drawn) | -1.55%
Cc1cnnn1Cc1nnn2c1CN(Cc1ccccn1)CCC2 | -7.24%
Cc1ccc(C(C)NCCc2nccn2Cc2ccccc2)o1 (stereo not drawn) | -10.1%
O=C(C1CCCN(C2CCOCC2)C1)N1CCc2ncccc2C1 (stereo not drawn) | -4.26%
COCCOCCNc1cncc(Br)c1 | -0.213%
Cc1cccnc1CCNC(=O)[C@@]12CNC[C@@H]1CN(S(C)(=O)=O)C2 | -1.74%
COC(=O)Cn1ccc(=O)c2ccc(OC)cc21 | 39.1%
c1cc(N2CCC(CN3CCOCC3)CC2)c2sccc2n1 | 0.228%
O=C(O)CNc1cc(-c2cc(C3CC3)ncn2)c2cc[nH]c2n1 | 0.922%
Cn1cncc1-c1nnc([C@H]2CCN(Cc3ccc(F)c(F)c3)C2)o1 | -0.644%

Structure (SMILES) | cytotoxicity at 70.5 h
Cc1ccc(OCCN(C)C(=O)NC(C)c2nncn2C)cc1 (stereo not drawn) | -5.04%
CC(C(=O)NCC(C)(C)c1ccc2c(c1)OCO2)n1ccnc1 (stereo not drawn) | -1.09%
CN1CCOC(CNCc2coc(-c3cccs3)n2)C1 (stereo not drawn) | 27.5%
Cc1cc(O)n(-c2ccc3nnc(C)n3n2)n1 | -19.5%
CN1CCN(C(=O)c2n[nH]c3c2CN(C2CCOCC2)CC3)CC1 | -10.2%
c1cnc(N2CCC3(CC2)CC(NCC2CC2)c2ccccc23)nc1 (stereo not drawn) | 11.4%
CC(C)Nc1nc2c(s1)C(=O)CN(C(=O)NCc1ccccc1)C2 | 1.44%
CC1(C)CC(=O)N(CC(=O)Nc2ccon2)c2ccccc21 | -6.95%
Cc1cccc(=O)n1CCC(=O)N1CCC2(CC1)OCCCC2O (stereo not drawn) | -3.41%
Cc1ccc(CC(=O)N2CCOC(c3nc(C(C)(C)C)n[nH]3)C2)cn1 (stereo not drawn) | -4.13%
O=C(C(C1CC1)C1CC1)N1CCC(n2ccnn2)CC1 | -9.3%
CCn1c(=O)n(CCC(=O)N(C)Cc2ccc(C)o2)c2ccccc21 | -4.18%
CC(=O)c1cccc(OCc2cc(C(=O)N3CCCCO3)n[nH]2)c1 | -15.4%
CC(=O)N1CCCN(CC(C)(O)c2cccc(C(F)(F)F)c2)CC1 (stereo not drawn) | -3.98%
CC(=O)OC1CN(c2nc3c(Cl)cccc3s2)C1 | -9.84%
O=C(c1cc2cc(F)ccc2[nH]1)N1CCC(Nc2cccnn2)CC1 | 24.4%
Cc1ccc(CN2CCc3onc(C(=O)Nc4cccnc4)c3C2)o1 | -7.97%
CC(O)CNCc1c[nH]nc1-c1cc2ccccc2o1 (stereo not drawn) | 17.5%
CCn1cc(NC(=O)C(C)n2ncc(Cl)c2C)c(C(=O)OC)n1 (stereo not drawn) | -3.71%
Cc1cccc(NC(=O)N(CCC(F)(F)F)C[C@H](O)CO)c1 | -5.55%
c1ccc(-c2nc(CNC3CCCN(c4cccnn4)C3)no2)cc1 (stereo not drawn) | 18.6%
